# Assay results published in ChEMBL document CHEMBL1132989, “A novel macromolecular prodrug concept exploiting endogenous serum albumin as a drug carrier for cancer chemotherapy” (2000).
# Test: Dose required for antitumor efficacy tested in vivo against primary kidney tumors in murine renal carcinoma (RENCA)
# Type: functional, Mus musculus
compound,measurement,value
COc1cccc2c1C(=O)c1c(O)c3c(c(O)c1C2=O)C[C@@](O)(/C(CO)=N/NC(=O)Cc1ccc(N2C(=O)C=CC2=O)cc1)C[C@@H]3OC1CC(C)C(O)C(N)C1.Cl (stereo partly specified),Dose,80 mM/kg
